Experimental data: US11912693B2, “Compounds for modulating S1P1 activity and methods of using the same” (TREVENA, INC., priority 2017, dated 2024)

Assays:
[1] = molecular target: T1, human sphingosine-1-phosphate receptor 1 (S1P1) (Homo sapiens (Human), UniProt P21453); assay: Inhibition of cAMP production (HTRF cAMP HiRange), S1P1 CHO-K1 cells; format: cell-based; conditions: for Emax: CHO-K1, efficacy (SPAN) normalized to fingolimod, read-out: hS1P1 cAMP SPAN
How it was run: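 CHO-K1 cells stably co-expressing human S1P1 (C-terminal Prolink tag) and EA-β-arrestin2 were grown in AssayComplete Media 6 at 37° C. and 5% CO2, plated, and incubated overnight. Agonist-driven inhibition of intracellular cAMP was read by TR-FRET with the HTRF cAMP HiRange kit on a PheraStar reader. Potency is pEC50, and efficacy (SPAN) is normalized to fingolimod.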
Target sequence in this assay (P21453 whole entry, looked up): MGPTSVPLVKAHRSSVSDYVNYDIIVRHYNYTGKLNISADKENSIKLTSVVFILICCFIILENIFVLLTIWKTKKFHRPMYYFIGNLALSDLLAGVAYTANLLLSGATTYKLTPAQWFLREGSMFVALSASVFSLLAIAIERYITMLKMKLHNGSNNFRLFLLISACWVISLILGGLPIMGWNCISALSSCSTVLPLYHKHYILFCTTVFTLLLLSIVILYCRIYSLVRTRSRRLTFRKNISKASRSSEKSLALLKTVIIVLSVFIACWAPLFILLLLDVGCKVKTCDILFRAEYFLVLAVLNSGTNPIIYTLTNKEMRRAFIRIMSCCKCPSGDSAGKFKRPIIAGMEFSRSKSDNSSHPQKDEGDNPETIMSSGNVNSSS

[2] = molecular target: T1, human sphingosine-1-phosphate receptor 1 (S1P1); assay: β-Arrestin2 recruitment assay (PathHunter), S1P1 CHO-K1 cells; format: cell-based; conditions: for Emax: CHO-K1, efficacy (SPAN) normalized to fingolimod, read-out: hS1P1 B-arrestin2 SPAN
How it was run: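 Enzyme-fragment complementation read-out: agonist-driven β-arrestin2 binding to ProLink-tagged human S1P1 in stable CHO-K1 cells restores β-galactosidase, measured 1 h at room temperature after a 60 min 37° C. compound incubation. Potency as pEC50, efficacy relative to fingolimod (SPAN).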
Target sequence in this assay (P21453 whole entry, looked up): as above
Target sequence in this assay (P32121 whole entry partner, looked up): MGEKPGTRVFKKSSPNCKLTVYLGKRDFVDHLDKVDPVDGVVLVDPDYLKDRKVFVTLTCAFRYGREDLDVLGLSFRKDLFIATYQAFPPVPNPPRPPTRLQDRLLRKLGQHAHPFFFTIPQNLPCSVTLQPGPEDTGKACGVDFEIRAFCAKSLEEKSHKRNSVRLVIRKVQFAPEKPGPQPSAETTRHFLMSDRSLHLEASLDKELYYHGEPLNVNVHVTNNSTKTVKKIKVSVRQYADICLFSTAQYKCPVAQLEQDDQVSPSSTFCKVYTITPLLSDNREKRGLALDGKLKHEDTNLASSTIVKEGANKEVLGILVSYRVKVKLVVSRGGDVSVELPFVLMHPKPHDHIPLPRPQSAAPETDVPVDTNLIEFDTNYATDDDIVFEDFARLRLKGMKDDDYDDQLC

[3] = inhibition of cAMP production, S1P1 CHO-K1 cells
[4] = β-arrestin2 recruitment, S1P1 CHO-K1 cells

Compound | hS1P1 cAMP pEC50 [1, 3] | hS1P1 B-arrestin2 pEC50 [2, 4] | Emax [1] [%] | Emax [2] [%] | EC50 ([1]; inhibition of cAMP production, S1P1 CHO-K1 cells, read-out: hS1P1 cAMP pEC50 (converted)) [µM] | EC50 ([2]; β-arrestin2 recruitment, S1P1 CHO-K1 cells, read-out: hS1P1 B-arrestin2 pEC50 (converted)) [µM]
CC(C)Nc1ccc(-c2nnc(-c3ccc4[nH]c(=O)oc4c3)o2)cc1C#N [Compound 484, 5-[5-(2-oxo-2,3-dihydro-1,3-benzoxazol-6-yl)-1,3,4-oxadiazol-2-yl]-2-[(propan-2-yl)amino]benzonitrile] | >6.5 | >5 |  |  |  | 
CC(C)c1cc(-c2nc(-c3ccc4c(c3)nnn4C(C)C)no2)ccn1 [Compound 167, 3-(1-isopropyl-1H-benzo[d][1,2,3]triazol-5-yl)-5-(2-isopropylpyridin-4-yl)-1,2,4-oxadiazole] | <6.5 | <5 |  |  |  | 
COc1cccc(-c2nc(-c3ccc4c(ccn4C(C)C)c3)ns2)c1 [Compound 366, 5-[5-(3-methoxyphenyl)-1,2,4-thiadiazol-3-yl]-1-(propan-2-yl)-1H-indole] | <6.5 | <5 |  |  |  | 
Cc1ccccc1-c1noc(-c2ccc3c(cnn3C(C)C)c2)n1 [Compound 329, 5-(1-isopropyl-1H-indazol-5-yl)-3-(o-tolyl)-1,2,4-oxadiazole] | >6.5 | >5 | > 75 | > 75 |  | 
C=CCn1nnc2cc(-c3noc(-c4ccccc4Br)n3)ccc21 [Compound 42, 3-(1-allyl-1H-benzo[d][1,2,3]triazol-5-yl)-5-(2-bromophenyl)-1,2,4-oxadiazole] | <6.5 | <5 |  |  |  | 
Cc1ccc2oc(-c3ccc4c(c3)nnn4C(C)C)nc2c1 [Compound 419, 2-(1-isopropyl-1H-benzo[d][1,2,3]triazol-5-yl)-5-methylbenzo[d]oxazole] | >6.5 | >5 | > 75 | < 75 |  | 
Cc1ccccc1-c1noc(-c2ccc3c(c2)nnn3CC(C)(C)O)n1 [Compound 139, 2-methyl-1-{5-[3-(2-methylphenyl)-1,2,4-oxadiazol-5-yl]-1H-1,2,3-benzotriazol-1-yl}propan-2-ol] | >6.5 | >5 | > 75 | > 75 |  | 
CCC1(CC)CC(=O)c2cc(-c3nc(-c4cccs4)no3)ccc2O1 [Compound 467, 2,2-diethyl-6-(3-(thiophen-2-yl)-1,2,4-oxadiazol-5-yl)chroman-4-one] | >6.5 | >5 |  |  |  | 
Cc1ccc2nc(-c3ccc4c(c3)nnn4C(C)C)oc2c1 [Compound 420, 2-(1-isopropyl-1H-benzo[d][1,2,3]triazol-5-yl)-6-methylbenzo[d]oxazole] | >6.5 | <5 | > 75 | > 75 |  | 
Cc1cc(-c2nc(-c3ccc4c(c3)nnn4C(C)C)no2)cnc1C [Compound 201, 5-(5,6-dimethylpyridin-3-yl)-3-(1-isopropyl-1H-benzo[d][1,2,3]triazol-5-yl)-1,2,4-oxadiazole] | <6.5 | <5 |  |  |  | 
COc1ccccc1-c1noc(-c2ccc3c(c2)nnn3C(C)(C)C)n1 [Compound 207, 1-tert-butyl-5-[3-(2-methoxyphenyl)-1,2,4-oxadiazol-5-yl]-1H-1,2,3-benzotriazole] | >6.5 | >5 | > 75 | > 75 |  | 
CC(C)n1nnc2cc(-c3cc(-c4ccccc4)n(C)c3)ccc21 [Compound 544, 5-(1-methyl-5-phenyl-1H-pyrrol-3-yl)-1-(propan-2-yl)-1H-1,2,3-benzotriazole] | <6.5 | >5 |  |  |  | 
Cc1cc(-c2nc(-c3ccc4c(c3)nnn4C(C)C)no2)ccn1 [Compound 86, 3-(1-isopropyl-1H-benzo[d][1,2,3]triazol-5-yl)-5-(2-methylpyridin-4-yl)-1,2,4-oxadiazole] | <6.5 | <5 | < 75 | > 75 |  | 
CC(C)n1nnc2cc(-c3ncc(-c4ccc(F)cc4)s3)ccc21 [Compound 37, 5-(4-fluorophenyl)-2-(1-isopropylbenzotriazol-5-yl)thiazole] | <6.5 | <5 |  |  |  | 
Cc1ccsc1-c1noc(-c2ccc3c(c2)nnn3C(C)(C)C)n1 [Compound 253, 1-tert-butyl-5-[3-(3-methylthiophen-2-yl)-1,2,4-oxadiazol-5-yl]-1H-1,2,3-benzotriazole] |  |  | > 75 | > 75 | < 0.316 | < 10
CC(C)n1ccc2cc(-c3nc(-c4ccccc4Br)no3)ccc21 [Compound 322, 3-(2-bromophenyl)-5-(1-isopropyl-1H-indol-5-yl)-1,2,4-oxadiazole] | >6.5 | >5 | > 75 | > 75 |  | 
CC(=O)Nc1ccccc1-c1coc(-c2ccc3c(c2)nnn3C(C)C)n1 [Compound 458, N-(2-{2-[1-(propan-2-yl)-1H-1,2,3-benzotriazol-5-yl]-1,3-oxazol-4-yl}phenyl)acetamide] | <6.5 | <5 | < 75 | < 75 |  | 
CCC1(CC)CC(=O)c2cc(-c3nc(-c4cncc(O)c4)no3)ccc2O1 [Compound 310, 2,2-diethyl-6-[3-(5-hydroxy-3-pyridyl)-1,2,4-oxadiazol-5-yl]chroman-4-one] | >6.5 | >5 | > 75 | > 75 |  | 
CCC1(CC)CC(=O)c2cc(-c3nc(-c4ccncc4F)no3)ccc2O1 [Compound 226, 2,2-diethyl-6-(3-(3-fluoropyridin-4-yl)-1,2,4-oxadiazol-5-yl)chroman-4-one] | <6.5 | <5 |  |  |  | 
CC(C)n1nnc2cc(-c3noc(C4CCCCC4)n3)ccc21 [Compound 127, 5-(5-cyclohexyl-1,2,4-oxadiazol-3-yl)-1-(propan-2-yl)-1H-1,2,3-benzotriazole] | <6.5 | <5 | < 75 | < 75 |  | 
CC(C)Oc1ccccc1-c1noc(-c2ccc3c(cnn3C(C)C)c2)n1 [Compound 334, 3-(2-isopropoxyphenyl)-5-(1-isopropyl-1H-indazol-5-yl)-1,2,4-oxadiazole] | <6.5 | <5 | > 75 | > 75 |  | 
CC(C)(O)Cn1nnc2cc(-c3nc(-c4ccncc4C(F)(F)F)no3)ccc21 [Compound 460, 2-methyl-1-(5-{3-[3-(trifluoromethyl)pyridin-4-yl]-1,2,4-oxadiazol-5-yl}-1H-1,2,3-benzotriazol-1-yl)propan-2-ol] | <6.5 | <5 | > 75 | > 75 |  | 
N#Cc1cc(-c2nc(-c3ccc4c(c3)CCC(=O)N4)no2)ccc1NCCF [Compound 343, 2-[(2-fluoroethyl)amino]-5-[3-(2-oxo-1,2,3,4-tetrahydroquinolin-6-yl)-1,2,4-oxadiazol-5-yl]benzonitrile] | >6.5 | >5 | > 75 | > 75 |  | 
CC(C)(O)Cn1nnc2cc(-c3nc(-c4ccc5nc[nH]c5c4)no3)ccc21 [Compound 501, 1-{5-[3-(1H-1,3-benzodiazol-6-yl)-1,2,4-oxadiazol-5-yl]-1H-1,2,3-benzotriazol-1-yl}-2-methylpropan-2-ol] | <6.5 | <5 | < 75 | > 75 |  | 
N#Cc1cc(-c2nc(-c3ccc4c(c3)CCC(=O)N4)no2)ccc1NCC(F)F [Compound 344, 2-[(2,2-difluoroethyl)amino]-5-[3-(2-oxo-1,2,3,4-tetrahydroquinolin-6-yl)-1,2,4-oxadiazol-5-yl]benzonitrile] | >6.5 | >5 | > 75 | > 75 |  | 
Cc1ccsc1-c1noc(-c2ccc3c(c2)nnn3CC(C)C)n1 [Compound 75, 1-(2-methylpropyl)-5-[3-(3-methylthiophen-2-yl)-1,2,4-oxadiazol-5-yl]-1H-1,2,3-benzotriazole] | >6.5 | >5 | < 75 | > 75 |  | 
